Patent US20050124645A1, “Methods and compositions for increasing CD4lymphocyte immune responsiveness” (priority 1998, published 2005)
Entries after “also recorded” stand apart in the source; their conditions may differ.

How the values were obtained:
[1] = molecular target: T1, protein tyrosine phosphatase (PTP), particularly PTP1B (Homo sapiens, UniProt P18031); settings: Pathak & Yi 2001; cited from earlier work
T1 sequence (P18031 1-435): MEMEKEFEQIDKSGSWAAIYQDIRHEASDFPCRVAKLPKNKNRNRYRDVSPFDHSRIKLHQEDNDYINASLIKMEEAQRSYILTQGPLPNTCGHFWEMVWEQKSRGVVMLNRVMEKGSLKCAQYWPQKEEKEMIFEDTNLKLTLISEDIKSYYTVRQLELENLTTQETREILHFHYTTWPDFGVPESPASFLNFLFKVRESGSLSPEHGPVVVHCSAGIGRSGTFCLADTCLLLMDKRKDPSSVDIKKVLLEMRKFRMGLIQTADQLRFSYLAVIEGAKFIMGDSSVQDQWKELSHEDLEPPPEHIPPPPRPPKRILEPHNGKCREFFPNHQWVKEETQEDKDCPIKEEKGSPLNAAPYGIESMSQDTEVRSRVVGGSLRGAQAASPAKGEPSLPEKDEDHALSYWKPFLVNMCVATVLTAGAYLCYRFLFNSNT

[2] = system: purified human CD4+ T cells; assay: Anti-TCR induced proliferation ([3H]-thymidine) of CD4-ligated purified CD4+ T cells, rescue by cytokines; type: cell-based; settings: for reversal of inhibition of proliferation at higher cytokine concentrations: up to 80 U/ml, data not shown; for anti-TCR induced proliferative response of CD4-ligated T cells: 20 U/ml cytokine, gp120 or anti-CD4 ligation before plate-bound anti-TCR, 3 days, FIG. 1
Description: Heparinized venous blood from healthy adult human donors was separated on a Ficoll-Paque (Pharmacia Biotech) gradient to obtain lymphocytes. CD4^+ T cells were isolated by incubation with anti-CD8 mAb (OKT8, 20 Ag/ml, ATCC), followed by negative selection on goat anti-mouse IgG coated Immulan beads (Biotecx Laboratories).
Specifically, the purified CD4^+ T cells in balanced salts solution were incubated with or without gp120 (rgp120SF2, 10 μg/ml) and crosslinked with anti-gp120 antibody (1:250 dilution) or anti-CD4 mAb (anti-CD4, Leu-3α, 20 μg/ml) for 1 hr at 37° C.
Proliferation in response to plate-bound anti-TCR was determined as follows. Cells were washed, resuspended in RPMI-1640 culture media (GIBCO) supplemented with 10% fetal bovine serum (FBS, Gemini BioProducts) and 1×10^5 cells were added to triplicate wells of an anti-T cell receptor monoclonal antibody-coated (anti-TCR, BMA-031, 50 μg/ml) 96-well plate (Becton Dickinson). […] Culture plates were incubated for 3 days at 37° C. with 1 μCi/Well [^3H]-thymidine (NEN) present during the final 5 hours of culture. The cells were harvested and processed to determine ^3H-thymidine incorporation.

IL-2R (α-chain, CD25) = assay: Activation-induced IL-2R (CD25) expression on CD4 primed T cells by flow cytometry; type: cell-based, human; settings: 20 U/ml cytokine; 24 hours; FIGS. 2A, 2B
Description: Expression of high affinity IL-2R (CD25) was also analyzed in CD4 primed T cells. To determine the expression of IL-2R (α-chain, CD25), the culture plates were set up as described in Example 1 and incubated at 37° C. for 24 hours. 2×10^5 cells were stained with FITC-conjugated anti-CD25 mAb (Pharmingen) and analyzed by flow cytometry (Coulter XL).

JAK3 [3] = assay: JAK3 expression (Western blot) in mock- or HIV-1 NL4-3-infected CD4+ T cell PHA blasts; type: cell-based, human; settings: 20 U/ml, 48 hours
Description: In this experiment, purified human CD4^+ T cells isolated as described above and activated with PHA for 3 days were infected for 4 days with a laboratory cloned strain of HIV-1, NL4-3. […] Cells were harvested and lysed with TBS/1% NP40 and analyzed on 7.5% SDS PAGE. Western blots using anti-JAK3 or anti-actin were prepared as described in Example 3.

JAK3 [4] = assay: JAK3 expression and tyrosine phosphorylation (immunoprecipitation/Western blot) in TCR/CD3-stimulated CD4+ T cells with or without prior CD4 ligation; type: cell-based, human; settings: for reversal of gp120 or anti-CD4 induced inhibition of JAK3 expression and activation: 20 U/ml cytokine, FIG. 4
Description: In this experiment, the present inventors determined the activation status of JAK3 in CD4^+ T cells which were activated through the TCR subsequent to CD4 ligation.
Briefly, the purified CD4^+ T cells were incubated with or without gp120 and anti-gp120 antibody or anti-CD4 for 1 hour at 37° C. 3×10^6 cells per well were incubated at 37° C. in an anti-CD3 mAb coated (anti-CD3, OKT3, 50 μg/ml, ATCC) 12-well plate. Cells were harvested after various times and lysed in Tris-buffered saline (TBS) containing 1% NP-40, phosphatase inhibitors and protease inhibitors. After micro centrifugation, the post-nuclear lysates were used for immunoprecipitation with anti-JAK3 polyclonal antibody (anti-JAK3, 10 μl, Santa Cruz Biotechnology). The antibody-protein complex was pelleted using Sepharose-conjugated Protein A (Sigma) boiled in sample buffer (0.4% SDS, 3% glycerol and 1% β-mercaptoethanol (2-ME)) and the proteins were separated by 7.5% SDS-PAGE. The proteins were transferred to nitrocellulose membrane and immunoblotted with antiphosphotyrosine mAb (anti-P-Tyr, Ab-2, Oncogene Science) Positive protein bands were detected with horseradish peroxidase (HRP)-conjugated goat anti-mouse IgG (Jackson ImmunoResearch) and SuperSignal Substrate (SSS, Pierce). Membranes were stripped with 62.5 mM Tris-HCl, pH 6.7, containing 10 mM 2-ME, and 2% SDS, immunoblotted with anti-JAK3, and developed with HRP-conjugated protein A and SSS.
In some experiments, 1.5×10^6 cell equivalents of post-nuclear lysate were boiled with sample buffer and separated by 7.5% SDS-PAGE. Nitrocellulose membrane was immunoblotted with (anti-JAK3 and then stripped and immunoblotted with anti-actin mAb (anti-actin, Sigma), as described above. Optical density (O.D.) of positive bands was measured with the Stratagene Eagle Eye II.

JAK1 = JAK1 activation in T cells stimulated through TCR/CD3 with or without prior CD4 ligation; type: cell-based, human; settings: CD4 ligation before TCR/CD3 stimulation; FIG. 5
Excerpt: Another Janus family kinase, JAK1, associates with the β chain of IL-2R and with the α chains of IL-4R and IL-7R, and is autophosphorylated upon activation (Johnston et al. (1994) Nature, 370:151; and Russell et al. (1994) Science, 270:797).

CD4 = CD4 (Homo sapiens, UniProt P01730); settings: ligation of CD4; literature; cited from earlier work
HIV-1 LTR = assay: HIV-1 LTR-luciferase activity in resting CD4+ T cells; type: cell-based; settings: STAT5 expression vector or IL-2 for 1 hour, FIG. 17
Excerpt: Resting CD4^+ T cells were transfected with a construct containing luciferase under the control of HIV-1 LTR or a control luciferase construct (Dual-luciferase© Reporter Assay System, Promega, Madison, Wis.). The cells were also optionally transfected with an expression vector encoding STAT5. […] The luciferase activity of the cellular lysates was subsequently measured.

In the case of `O.O.O.O.O.O.O.O.O.O=C([O-])[C@@H]1[O][Sb]2([O-])([O][Sb]34([OH])[O][C@H]([C@H](O)CO)[C@H]([O]3)[C@H](C(=O)[O-])[O]4)[O][C@H]([C@H](O)CO)[C@@H]1[O]2.[Na+].[Na+].[Na+]` [pentostam, stibogluconate sodium], the “cellular protein tyrosine phosphatase (PTP) inhibition, particularly PTP1B” value [1] is listed as “inhibit”.

For “IL-6: cytokine that binds to receptors on T cells which lack γc”, the “reversal of inhibition of proliferation at higher cytokine concentrations” value [2] was “did not reverse the inhibition of proliferation”.

For “IL-7: cytokine which binds to receptors on T cells having γc; Genzyme”, the “activation-induced CD25 expression on CD4 primed T cells” value (IL-2R (α-chain, CD25)) was “restored activation-induced CD25 expression”, the “anti-TCR induced proliferative response of CD4-ligated T cells” value [2] was “restored the proliferative response” and the “JAK3 expression in anti-CD3 stimulated HIV infected T cells” value (JAK3 [3]; versus stimulated HIV-infected cells without cytokine) was “significantly increased; also recorded: increases JAK3 expression”. The “JAK3 expression in anti-CD3 stimulated mock-infected T cells” value (JAK3 [3]; versus stimulated cells without cytokine) was “increased JAK3 expression slightly” and the “reversal of gp120 or anti-CD4 induced inhibition of JAK3 expression and activation” value (JAK3 [4]) was “completely reversed”.

For “gp120: HIV surface glycoprotein, crosslinked with anti-gp120 antibody”, the “activation status of JAK1” value (JAK1) was “did not significantly change”, the “extent of inhibition of JAK3 expression and activation” value (JAK3 [4]; CD4 ligation before anti-CD3 stimulation, FIG. 3A) was “incomplete” and the “TCR/CD3-induced expression and phosphorylation of JAK3” value (JAK3 [4]; CD4 ligation before anti-CD3 stimulation, FIGS. 3A, 3B) was “inhibits”. For the same molecule, the “TCR/CD3-induced IL-2R expression, IL-2 production, and proliferation” value (CD4) was “inhibit”.

B1: IL-4: cytokine which binds to receptors on T cells having γc; R&D Systems (protein, UniProt P05112 25-153, looked up)
Interleukin-4: HKCDITLQEIIKTLNSLTEQKTLCTELTVTDIFAASKNTTEKETFCRAATVLRQFYSHHEKDTRCLGATAQQFHRHKQLIRFLKRLDRNLWGLAGLNSCPVKEANQSTLENFLERLKTIMREKYSKCSS
In the case of B1, the “activation-induced CD25 expression on CD4 primed T cells” value (IL-2R (α-chain, CD25)) is reported as “restored activation-induced CD25 expression”, the “anti-TCR induced proliferative response of CD4-ligated T cells” value [2] is reported as “restored the proliferative response” and the “reversal of gp120 or anti-CD4 induced inhibition of JAK3 expression and activation” value (JAK3 [4]) is reported as “completely reversed”.

B2: STAT5: over-expressed from an expression vector encoding STAT5 (protein, UniProt P42229 1-794, looked up)
Signal transducer and …: MAGWIQAQQLQGDALRQMQVLYGQHFPIEVRHYLAQWIESQPWDAIDLDNPQDRAQATQLLEGLVQELQKKAEHQVGEDGFLLKIKLGHYATQLQKTYDRCPLELVRCIRHILYNEQRLVREANNCSSPAGILVDAMSQKHLQINQTFEELRLVTQDTENELKKLQQTQEYFIIQYQESLRIQAQFAQLAQLSPQERLSRETALQQKQVSLEAWLQREAQTLQQYRVELAEKHQKTLQLLRKQQTIILDDELIQWKRRQQLAGNGGPPEGSLDVLQSWCEKLAEIIWQNRQQIRRAEHLCQQLPIPGPVEEMLAEVNATITDIISALVTSTFIIEKQPPQVLKTQTKFAATVRLLVGGKLNVHMNPPQVKATIISEQQAKSLLKNENTRNECSGEILNNCCVMEYHQATGTLSAHFRNMSLKRIKRADRRGAESVTEEKFTVLFESQFSVGSNELVFQVKTLSLPVVVIVHGSQDHNATATVLWDNAFAEPGRVPFAVPDKVLWPQLCEALNMKFKAEVQSNRGLTKENLVFLAQKLFNNSSSHLEDYSGLSVSWSQFNRENLPGWNYTFWQWFDGVMEVLKKHHKPHWNDGAILGFVNKQQAHDLLINKPDGTFLLRFSDSEIGGITIAWKFDSPERNLWNLKPFTTRDFSIRSLADRLGDLSYLIYVFPDRPKDEVFSKYYTPVLAKAVDGYVKPQIKQVVPEFVNASADAGGSSATYMDQAPSPAVCPQAPYNMYPQNPDHVLDQDGEFDLDETMDVARHVEELLRRPMDSLDSRLSPPAGLFTSARGSLS
In the case of B2, the “activity from the HIV-1 LTR (luciferase activity)” value (HIV-1 LTR) is reported as “increased activity”.

B3: IL-12: cytokine that binds to receptors on T cells which lack γc (protein, UniProt P29459 23-219; P29460 23-328, looked up)
Interleukin-12 subunit alpha: RNLPVATPDPGMFPCLHHSQNLLRAVSNMLQKARQTLEFYPCTSEEIDHEDITKDKTSTVEACLPLELTKNESCLNSRETSFITNGSCLASRKTSFMMALCLSSIYEDLKMYQVEFKTMNAKLLMDPKRQIFLDQNMLAVIDELMQALNFNSETVPQKSSLEEPDFYKTKIKLCILLHAFRIRAVTIDRVMSYLNAS
Interleukin-12 subunit beta: IWELKKDVYVVELDWYPDAPGEMVVLTCDTPEEDGITWTLDQSSEVLGSGKTLTIQVKEFGDAGQYTCHKGGEVLSHSLLLLHKKEDGIWSTDILKDQKEPKNKTFLRCEAKNYSGRFTCWWLTTISTDLTFSVKSSRGSSDPQGVTCGAATLSAERVRGDNKEYEYSVECQEDSACPAAEESLPIEVMVDAVHKLKYENYTSSFFIRDIIKPDPPKNLQLKPLKNSRQVEVSWEYPDTWSTPHSYFSLTFCVQVQGKSKREKKDRVFTDKTSATVICRKNASISVRAQDRYYSSSWSEWASVPCS
With B3 the “reversal of inhibition of proliferation at higher cytokine concentrations” value [2] was “did not reverse the inhibition of proliferation”.
